Consider six compounds from ChEMBL document CHEMBL5120847, “Enceleamycins A-C, Furo-Naphthoquinones from Amycolatopsis sp. MCC0218: Isolation, Structure Elucidation, and Antimicrobial Activity” (2022).

Values after ≈ are worked out from the molar mass of the structure shown. Some results are limits rather than exact numbers.

Common to all, as to assay type: functional
One assay deals with Bacillus cereus. In words: Antibacterial activity against Bacillus cereus ATCC 11778 assessed as inhibition of visible bacterial growth incubated for 18 hrs by CLSI protocol based assay.
The test system of assay [1] is Staphylococcus epidermidis. In words: Antibacterial activity against Staphylococcus epidermidis ATCC 12228 assessed as inhibition of visible bacterial growth incubated for 18 hrs by CLSI protocol based assay.
For assay [2], the system named is Staphylococcus aureus. The experiment in a line: Antibacterial activity against methicillin-resistant Staphylococcus aureus clinical isolate 6B assessed as inhibition of visible bacterial growth incubated for 18 hrs by CLSI protocol based assay.
Assay [3] has as its system Mycolicibacterium smegmatis. In words: Antibacterial activity against Mycobacterium smegmatis ATCC 607 assessed as inhibition of visible bacterial growth incubated for 48 hrs by CLSI protocol based assay.
The test system of a further assay is Listeria monocytogenes. In words: Antibacterial activity against Listeria monocytogenes ATCC19111 assessed as inhibition of visible bacterial growth incubated for 18 hrs by CLSI protocol based assay.
For assay [4], the system named is Staphylococcus aureus. In words: Antibacterial activity against methicillin-resistant Staphylococcus aureus clinical isolate 10B assessed as inhibition of visible bacterial growth incubated for 18 hrs by CLSI protocol based assay.
The test system of a further assay is Escherichia coli. The experiment in a line: Antibacterial activity against Escherichia coli ATCC 8739 assessed as inhibition of visible bacterial growth incubated for 18 hrs by CLSI protocol based assay.
Another assay concerns Micrococcus luteus. The experiment in a line: Antibacterial activity against Micrococcus luteus ATCC 9341 assessed as inhibition of visible bacterial growth incubated for 18 hrs by CLSI protocol based assay.
The next assay deals with Pseudomonas aeruginosa. In words: Antibacterial activity against Pseudomonas aeruginosa ATCC 9027 assessed as inhibition of visible bacterial growth incubated for 18 hrs by CLSI protocol based assay.
In assay [5] the test system is Staphylococcus aureus. In words: Antibacterial activity against methicillin-resistant Staphylococcus aureus clinical isolate 9B assessed as inhibition of visible bacterial growth incubated for 18 hrs by CLSI protocol based assay.
Assay [6] relates to Staphylococcus aureus. In words: Antibacterial activity against methicillin-resistant Staphylococcus aureus clinical isolate 3B assessed as inhibition of visible bacterial growth incubated for 18 hrs by CLSI protocol based assay.
A further assay deals with Bacillus subtilis. The experiment in a line: Antibacterial activity against Bacillus subtilis ATCC 6633 assessed as inhibition of visible bacterial growth incubated for 18 hrs by CLSI protocol based assay.
Assay [7] has as its system Staphylococcus aureus. The experiment in a line: Antibacterial activity against Staphylococcus aureus ATCC 9144 assessed as inhibition of visible bacterial growth incubated for 18 hrs by CLSI protocol based assay.

In the case of `C[C@H]1O[C@@H]2O[C@@H]3C4C(=O)c5cccc(O)c5C(=O)C4O[C@]3(C)[C@@]21O` (stereo partly specified), the MIC in the assay on Bacillus cereus came to 8 µg/mL (≈ 24.1 µM); in assay [1], 2 µg/mL (≈ 6.02 µM); in the assay with Staphylococcus aureus [2], 4 µg/mL (≈ 12 µM); in assay [3], 64 µg/mL (≈ 193 µM); in the assay with Listeria monocytogenes, 2 µg/mL (≈ 6.02 µM); in the assay with Staphylococcus aureus [4] it was 4 µg/mL (≈ 12 µM). Further, the MIC in the assay with Escherichia coli is above 128 µg/mL; with Micrococcus luteus, 8 µg/mL (≈ 24.1 µM); with Pseudomonas aeruginosa, above 128 µg/mL; in the assay on Staphylococcus aureus [5], 4 µg/mL (≈ 12 µM); in the assay with Staphylococcus aureus [6] it was 4 µg/mL (≈ 12 µM); in the assay on Bacillus subtilis, 4 µg/mL (≈ 12 µM). The MIC with Staphylococcus aureus [7] turned out to be 2 µg/mL (≈ 6.02 µM).

In the case of `CC(C)Cc1nc([C@H](C)C(=O)O)c(C(C)C)n(O)c1=O`, the MIC was 128 µg/mL (≈ 453 µM) in the assay on Bacillus cereus; 64 µg/mL (≈ 227 µM) in assay [1]; 128 µg/mL (≈ 453 µM) with Staphylococcus aureus [2]; above 128 µg/mL in assay [3]; 128 µg/mL (≈ 453 µM) with Listeria monocytogenes; 128 µg/mL (≈ 453 µM) in the assay with Staphylococcus aureus [4]. Also, the MIC in the assay with Escherichia coli was above 128 µg/mL; in the assay on Micrococcus luteus it was 64 µg/mL (≈ 227 µM); in the assay on Pseudomonas aeruginosa, above 128 µg/mL; in the assay with Staphylococcus aureus [5] it was 128 µg/mL (≈ 453 µM); in the assay on Staphylococcus aureus [6], 128 µg/mL (≈ 453 µM); with Bacillus subtilis it was 128 µg/mL (≈ 453 µM). Besides, the MIC in the assay with Staphylococcus aureus [7] worked out at 128 µg/mL (≈ 453 µM).

Take `C[C@H]1O[C@]12[C@@H](O)O[C@H]1[C@]2(C)O[C@]2(O)C(=O)c3c(O)cccc3C(=O)[C@@]12O`: the MIC in the assay on Bacillus cereus is above 128 µg/mL; in assay [1] it was 64 µg/mL (≈ 176 µM); in the assay on Staphylococcus aureus [2], above 128 µg/mL; in assay [3], above 128 µg/mL; in the assay on Listeria monocytogenes, 128 µg/mL (≈ 351 µM); in the assay on Staphylococcus aureus [4], 128 µg/mL (≈ 351 µM). In addition, the MIC in the assay on Escherichia coli, in the assay on Micrococcus luteus, in the assay with Pseudomonas aeruginosa, in the assay with Staphylococcus aureus [5], with Staphylococcus aureus [6] and with Bacillus subtilis was above 128 µg/mL in each case. Besides, the MIC with Staphylococcus aureus [7] is 128 µg/mL (≈ 351 µM).

Regarding `C[C@H]1O[C@@H]2C3=C(O[C@]2(C)[C@@]1(O)C=O)C(=O)c1c(O)cccc1C3=O`, the MIC in the assay with Bacillus cereus was found to be 16 µg/mL (≈ 48.4 µM); in assay [1] it was 8 µg/mL (≈ 24.2 µM); in the assay on Staphylococcus aureus [2], 8 µg/mL (≈ 24.2 µM); in [3], 64 µg/mL (≈ 194 µM); in the assay on Listeria monocytogenes, 8 µg/mL (≈ 24.2 µM); with Staphylococcus aureus [4], 8 µg/mL (≈ 24.2 µM). Also, the MIC was above 128 µg/mL in the assay with Escherichia coli; 32 µg/mL (≈ 96.9 µM) in the assay on Micrococcus luteus; above 128 µg/mL in the assay on Pseudomonas aeruginosa; 16 µg/mL (≈ 48.4 µM) in the assay with Staphylococcus aureus [5]; 16 µg/mL (≈ 48.4 µM) in the assay on Staphylococcus aureus [6]; 16 µg/mL (≈ 48.4 µM) in the assay on Bacillus subtilis. In the assay on Staphylococcus aureus [7], the MIC was 8 µg/mL (≈ 24.2 µM).

Turning to `CC1(C)S[C@@H]2[C@H](NC(=O)[C@H](N)c3ccccc3)C(=O)N2[C@H]1C(=O)O` [AMPICILLIN], the MIC in the assay with Bacillus cereus was 16 µg/mL (≈ 45.8 µM); in [1], 1 µg/mL (≈ 2.86 µM); in the assay on Staphylococcus aureus [2] it was 8 µg/mL (≈ 22.9 µM); in assay [3], 64 µg/mL (≈ 183 µM); with Listeria monocytogenes it was 0.03 µg/mL (≈ 0.0859 µM); in the assay on Staphylococcus aureus [4], 4 µg/mL (≈ 11.4 µM). Moreover, the MIC in the assay with Micrococcus luteus was 0.03 µg/mL (≈ 0.0859 µM); with Pseudomonas aeruginosa, 2 µg/mL (≈ 5.72 µM); with Staphylococcus aureus [6] it was 8 µg/mL (≈ 22.9 µM); in the assay with Bacillus subtilis it was 0.03 µg/mL (≈ 0.0859 µM); with Staphylococcus aureus [7] it was 0.03 µg/mL (≈ 0.0859 µM).

For the compound `NC[C@H]1O[C@H](O[C@H]2[C@H](O)[C@@H](O[C@H]3O[C@H](CO)[C@@H](O)[C@H](N)[C@H]3O)[C@H](N)C[C@@H]2N)[C@H](O)[C@@H](O)[C@@H]1O` [KANAMYCIN], the minimum inhibitory concentration (MIC) with Bacillus cereus is 2 µg/mL (≈ 4.13 µM); in assay [1], 1 µg/mL (≈ 2.06 µM); in the assay on Staphylococcus aureus [2], above 128 µg/mL; in assay [3] it was 0.25 µg/mL (≈ 0.516 µM); with Listeria monocytogenes, 1 µg/mL (≈ 2.06 µM); in the assay with Staphylococcus aureus [4], above 128 µg/mL. Also, the minimal inhibitory concentration (MIC) is 8 µg/mL (≈ 16.5 µM) in the assay on Escherichia coli; 8 µg/mL (≈ 16.5 µM) in the assay on Micrococcus luteus; 8 µg/mL (≈ 16.5 µM) in the assay on Pseudomonas aeruginosa; 128 µg/mL (≈ 264 µM) in the assay on Staphylococcus aureus [5]; above 128 µg/mL with Staphylococcus aureus [6]; 0.5 µg/mL (≈ 1.03 µM) with Bacillus subtilis. For the same compound, the MIC with Staphylococcus aureus [7] was 8 µg/mL (≈ 16.5 µM).

By MIC is commonly meant the smallest concentration in the dilution series that meets the test's criterion for growth inhibition.
